Test [1] has as its target T1, Fe65-WW domain (WW domain of Fe65) (Homo sapiens, UniProt O00213).
T1 construct: made in house; host or cells: chemical solid-phase peptide synthesis (Fmoc, Rink Amide AM resin); no expression host
T1 sequence (O00213 253-285 limits assumed): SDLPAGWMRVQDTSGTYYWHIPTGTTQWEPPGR
Nature of the test: ITC binding to Fe65-WW. Further details: species or system human and mouse (WW domain identical). The settings on record: 310 K. As for the experimental part: Synthesis of acetyl-Fe65-WW, acetyl-Pin1-WW, and the control PPPPP (structures involved in Figure 2) was carried out on a Rink Amide AM (0.3 mmol∙g^−1) resin using Fmoc chemistry and activation with HATU in the presence of DIPEA. Cleavage was achieved by a treatment with TFA/H2O/triisopropylsilane/1,4-dithio-DL-threitol/phenol (90:5:3:1:1) at room temperature (RT). TFA was removed in vacuo, the peptides were then precipitated using cold, dry diethyl-ether, dissolved in ACN/H2O and lyophilized.
Isothermal titrations were performed using a Microcal VP-ITC (Malvern Instruments, Malvern, UK) microcalorimeter. Binding experiments were carried out in degassed phosphate-buffered saline (PBS) at pH 7.4. The concentrations of Fe65-WW and Pin1-WW were normalized for the peptide contents. In one titration experiment, 10-μL portions of the ligand-containing solution (P33 or PPPPP) were injected from a computer-controlled 300-μL microsyringe at intervals of 300 s into the solution of the WW domain (Fe65-WW or Pin1-WW), dissolved in the same buffer as for the ligand. The rev of the microsyringe was set to 307 rpm. Measurements were repeated twice at 310 K. The starting concentrations of Fe65-WW and Pin1-WW in the cell were 83.5 and 81.4 μM, respectively, and the concentrations of the stock solutions containing P33 or PPPPP in the syringe were 1.006 and 1.056 mM, respectively. Control experiments were performed by injecting P33 or PPPPP into the cell containing plain buffer without the WW domain, with results achieved via subtracting the dilution heats from those measured in the presence of the WW domain.

For a further test, the system named is Aβ plaques. Description: 4G8 immunohistochemistry, Aβ plaque density. The format is in vivo, mouse. Conditions: HC and CTX; 5 mg∙kg^−1 i.p., six months; five animals per group. As for the experimental part: For this study, three-month-old male and female WT and APP/PS1 mice (n = 37) were used. Four groups were defined: WT-vehicle (physiological saline) (male n = 4; female n = 6), WT-P33 (male n = 6; female n = 5), APP/PS1-vehicle (male n = 3; female n = 5), and APP/PS1-P33 (male n = 6; female n = 2). Animals were subjected to intraperitoneal (i.p.) injections of P33 (5 mg∙kg^−1) for five days per week, over a course of six months. The mice were kept in groups under constant temperature (23 ± 0.5 °C), lighting (12-h/12-h light/dark cycle, lights on at 7:00 a.m.), and humidity (~50%). Standard mouse chow and tap water were supplied ad libitum. All behavioral experiments were performed in the light period. Handling was done daily at the same time.
Mice (five animals per group) were anaesthetized with chloral-hydrate (1 mg∙kg^−1) and perfused transcardially with PBS, followed by ice-cold 4% paraformaldehyde. The brains were removed, post-fixed in the same fixative, and immersed in a 30% sucrose solution containing 0.01% sodium-azide. […]
Slides were scanned by a digital slide scanner (Mirax Midi, 3DHistech Ltd., Budapest, Hungary), equipped with a Pannoramic Viewer 1.15.4, CaseViewer 2.1 program and a QuantCenter, HistoQuant module (3DHistech Ltd., Budapest, Hungary). For quantification, all of the sections were analyzed. […] Antibody-positive cell types from the ROIs were counted and quantified. […]

Several values for one entry are separate records, joined by “and”; a condition that tells them apart may be missing. Equal values may be shown once. Where a SMILES comes first, the peptide text is derived from it.

Take `C[C@@H](N)C(=O)N1CCC[C@@H]1C(=O)N[C@H](C)C(=O)N1CCC[C@@H]1C(=O)N[C@H](CCC(=O)O)C(N)=O` [P33] (HELM PEPTIDE1{[dA].[dP].[dA].[dP].[dE].[am]}$$$$V2.0): in test [1] (PBS pH 7.4), the “selectivity of binding, Fe65-WW over Pin1-WW (in words)” value is reported as “can bind selectively to the Fe65-WW domain” and the ΔH was 0.082 ± 0.001 kcal/mol. Moreover, the “stoichiometric factor N” value in test [1] (PBS pH 7.4, 1:1 [P33]/[Fe65-WW] complex) is 1.14 and 1.14 ± 0.01. In addition, the Kd in test [1] (PBS pH 7.4, Fe65-WW 83.5 μM in cell, P33 1.006 mM in syringe, measurements repeated twice, read-out: dissociation constant Kd) came out at 4.68 ± 0.04 µM. The “Aβ plaque density, effect of P33 (in words)” value with Aβ plaques was “significantly decreased the plaque density in APP/PS1-P33 mice”.

For the origin of these results see article PMC6627374, “Effects of the Pentapeptide P33 on Memory and Synaptic Plasticity in APP/PS1 Transgenic Mice: A Novel Mechanism Presenting the Protein Fe65 as a Target” (International Journal of Molecular Sciences, 2019).
